Measured values reported in the supplement of paper PMC10307832.

Columns and labels:
Experiment in all cases: relative viability (nuclei count vs DMSO), 5 days (fraction); higher = more cells survive
Alpelisib + Lapatinib = compound: Cc1nc(NC(=O)N2CCC[C@H]2C(N)=O)sc1-c1ccnc(C(C)(C)C(F)(F)F)c1 [Alpelisib] + CS(=O)(=O)CCNCc1ccc(-c2ccc3ncnc(Nc4ccc(OCc5cccc(F)c5)c(Cl)c4)c3c2)o1 [Lapatinib] (partner 2 µM)
In short: (§1)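 Lung cancer cell lines in 1536-well plates got either a single drug or a fixed anchor-drug dose together with five library-drug doses (not always all listed) in √10 steps, by pin tool, on the day after seeding. Nuclei were counted after 5 days, and relative viability is the treated-to-vehicle ratio of nuclei counts. Values are medians of duplicate plates.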

Vemurafenib + Navitoclax = compound: CCCS(=O)(=O)Nc1ccc(F)c(C(=O)c2c[nH]c3ncc(-c4ccc(Cl)cc4)cc23)c1F [Vemurafenib] + CC1(C)CCC(c2ccc(Cl)cc2)=C(CN2CCN(c3ccc(C(=O)NS(=O)(=O)c4ccc(N[C@H](CCN5CCOCC5)CSc5ccccc5)c(S(=O)(=O)C(F)(F)F)c4)cc3)CC2)C1 [Navitoclax] (partner 0.5 µM)
In short: as §1

OSI-027 + AZD7762 = compound: COc1cccc2cc(-c3nc([C@H]4CC[C@H](C(=O)O)CC4)n4ncnc(N)c34)[nH]c12 [OSI-027] + NC(=O)Nc1cc(-c2cccc(F)c2)sc1C(=O)N[C@H]1CCCNC1 [AZD7762] (partner 0.2 µM)
In short: as §1

OSI-027 + Bortezomib = compound: COc1cccc2cc(-c3nc([C@H]4CC[C@H](C(=O)O)CC4)n4ncnc(N)c34)[nH]c12 [OSI-027] + CC(C)C[C@H](NC(=O)[C@H](Cc1ccccc1)NC(=O)c1cnccn1)B(O)O [Bortezomib] (partner 0.002 µM)
In short: as §1

Cell Line | relative viability (Alpelisib + Lapatinib; first compound 0.04 µM) | relative viability (Alpelisib + Lapatinib; first compound 0.1265 µM) | relative viability (Alpelisib + Lapatinib; first compound 0.4 µM) | relative viability (Alpelisib + Lapatinib; first compound 1.265 µM) | relative viability (Alpelisib + Lapatinib; first compound 4 µM) | relative viability (Vemurafenib + Navitoclax; first compound 0.03162 µM) | relative viability (Vemurafenib + Navitoclax; first compound 0.1 µM) | relative viability (Vemurafenib + Navitoclax; first compound 0.3162 µM) | relative viability (Vemurafenib + Navitoclax; first compound 1 µM) | relative viability (OSI-027 + AZD7762; first compound 0.01 µM) | relative viability (OSI-027 + AZD7762; first compound 0.1 µM) | relative viability (OSI-027 + AZD7762; first compound 0.3162 µM) | relative viability (OSI-027 + AZD7762; first compound 1 µM) | relative viability (OSI-027 + AZD7762; first compound 0.03162 µM) | relative viability (OSI-027 + Bortezomib; first compound 0.01 µM) | relative viability (OSI-027 + Bortezomib; first compound 0.03162 µM) | relative viability (OSI-027 + Bortezomib; first compound 0.1 µM) | relative viability (OSI-027 + Bortezomib; first compound 0.3162 µM) | relative viability (OSI-027 + Bortezomib; first compound 1 µM)
LK-2 | 0.871 | 0.763 | 0.768 | 0.474 | 0.564 | 0.736 | 0.963 | 0.753 | 0.529 | 0.538 | 0.277 | 0.16 | 0.112 |  |  |  |  |  | 
NCI-H358 | 0.442 | 0.382 | 0.389 | 0.297 | 0.368 |  |  |  |  | 0.544 | 0.543 | 0.56 | 0.347 | 0.472 |  |  |  |  | 
NCI-H441 |  |  |  |  |  | 0.798 | 0.614 |  | 0.735 | 1.35 | 1.24 | 0.934 | 0.499 | 1.07 | 0.605 | 0.254 | 0.476 | 0.381 | 0.28
NCI-H520 | 0.712 | 0.765 | 0.906 | 0.669 | 0.631 | 1.04 | 1.16 | 1.11 | 1.15 |  |  |  |  |  | 0.62 | 0.394 | 0.459 | 0.179 | 0.225
NCI-H522 |  |  |  |  |  |  |  |  |  | 0.807 | 0.68 | 0.672 | 0.612 | 0.89 |  |  |  |  | 
NCI-H650 | 0.84 | 0.538 | 0.876 | 0.683 | 0.869 |  |  |  |  | 0.925 | 0.955 | 0.902 | 0.375 | 1.06 | 0.738 | 1.05 | 0.431 | 0.549 | 0.406
